Test results published in paper PMC3684613 (PLoS ONE, 2013).
Where two headings read alike, the source gives them in different places.

Key:
P. falciparum 3D7 [1] = test system: P. falciparum 3D7; set-up: method as in ChEMBL-NTD; conditions: ref ChEMBL-NTD, cited from earlier work
P. falciparum 3D7 [2] = experiment: DAPI stain fluorescent high content imaging assay, P. falciparum 3D7 (confirmatory screen, Avery); conditions: Plasmodium falciparum; for EC50: 3D7, read-out: EC50_nM; for inhibition of growth at 5 µM: 3D7, read-out: percent_inh @ 5 uM
[3] = values follow the order of the source (GNF; GSK; StJude)
[4] = original screening data, source (GSK, GNF, StJude), several values separated by ';' in order of sources

| EC50 (P. falciparum 3D7 [2]) | Structure (SMILES) | inhibition of growth at 5 µM (P. falciparum 3D7 [2]) | also measured |
| --- | --- | --- | --- |
| 1110 nM | COc1ccc(N2CCN(C(CNC(=O)C3CCCCC3)c3ccc4c(c3)OCO4)CC2)cc1 (stereo not shown) [MMV019662] | 97% | EC50 (P. falciparum 3D7 [1]; source GSK): 566 nM |
| 1430 nM | COc1ccc(CCN2CCC(CN(C)Cc3cnn(-c4ccccc4)c3)CC2)cc1 [MMV666069] | 96% | EC50 (P. falciparum 3D7 [1]; source GSK): 1160 nM |
|  | Cc1ccc(C)c(-c2csc(Nc3ccc(C)c(C)c3)n2)c1 [MMV007654] | 94% | EC50 (P. falciparum 3D7 [1]; [3]): 493 nM |
|  | COc1ccc(C(=O)Nc2ccc(Cl)cc2C(=O)Nc2ccncc2)cc1 [MMV665799] | 93% | EC50 (P. falciparum 3D7 [1]; source GSK): 822 nM |
| 448 nM | COc1ccc(-c2nc(NC(=O)CS(=O)(=O)c3ccc(F)cc3)sc2C)cc1 [MMV665915] | 97% | EC50 (P. falciparum 3D7 [1]; source GNF (GNF-Pf id)): 212 nM; EC50 (P. falciparum 3D7 [1]; source GSK (TCMDC id)): 243 nM |
| 168 nM | COc1ccc(C=C2SC(=N)N(c3ccccc3OC)C2=O)cc1 [MMV666691] | 97% | EC50 (P. falciparum 3D7 [1]; source GSK (TCMDC id)): 300 nM |
| 871 nM | CC(=O)Nc1nnc(SCc2c(C)cc(C(C)(C)C)cc2C)s1 [MMV020700] | 96% | EC50 (P. falciparum 3D7 [1]; [4]): 704 nM |
| 407 nM | CCCOCc1cc(CN2CCN(c3cccc(Cl)c3)CC2)c(O)c2ncccc12 [MMV000787] | 97% | EC50 (P. falciparum 3D7 [1]; source StJude (SJ ids)): 1100 nM |
| 1290 nM | C=CCc1c(C)nc2ccccc2c1O [MMV006913] | 85% | EC50 (P. falciparum 3D7 [1]; [4]): 707 nM |
| 1060 nM | COc1ccc(CNC(=O)c2cc3c(=O)n4ccccc4nc3n(CCc3ccccc3)c2=N)cc1 [MMV665881] | 95% | EC50 (P. falciparum 3D7 [1]; [3]): 330 nM |
| 876 nM | CN(C)CCCNCc1ccc(-c2ccc(F)c(Cl)c2)o1 [MMV020505] | 96% | EC50 (P. falciparum 3D7 [1]; source GSK (TCMDC ids)): 802 nM |
| 1240 nM | COc1ccc2c(c1OC)C(=O)N1c3ccccc3N=C(c3ccc(C)cc3)CC21 (stereo not shown) [MMV000917] | 93% | EC50 (P. falciparum 3D7 [1]; source StJude (SJ ids)): 2530 nM |
| 648 nM | CC1CCCCN1CCCNC(=O)c1ccc2c(c1)sc1nc(-c3ccc(F)cc3)cn12 (stereo not shown) [MMV000634] | 98% | EC50 (P. falciparum 3D7 [1]; source StJude): 634 nM |
| 1070 nM | O=C(NC1CCCCC1)C(c1cccs1)N(CCc1ccccc1)C(=O)c1ccco1 (stereo not shown) [MMV666106] | 90% | EC50 (P. falciparum 3D7 [1]; source GSK (TCMDC ids)): 1040 nM |
| 2060 nM | O=C(Nc1ccc(F)c(Cl)c1)Nc1ccc(Cl)c(Cl)c1 [MMV665953] | 95% | EC50 (P. falciparum 3D7 [1]; source StJude): 5410 nM |
| 414 nM | O=C1c2ccccc2C2=Nc3ccccc3SC(c3cccc(F)c3)C12 (stereo not shown) [MMV006389] | 94% | EC50 (P. falciparum 3D7 [1]; source GNF (GNF-Pf ids)): 86.7 nM |
| 1090 nM | COc1cccc(NC(=O)Cn2c(C)c(C#N)c3ccccc32)c1 [MMV665826] | 95% | EC50 (P. falciparum 3D7 [1]; source GNF): 79.6 nM; EC50 (P. falciparum 3D7 [1]; source GSK): 878 nM |
| 119 nM | CCOC(=O)c1cn(CC)c2cc(N3CCCCC3)c(F)cc2c1=O [MMV665827] | 100% | EC50 (P. falciparum 3D7 [1]; source GNF (GNF-Pf id)): 166 nM; EC50 (P. falciparum 3D7 [1]; source GSK (TCMDC id)): 125 nM |
| 1070 nM | O=C1c2ccccc2-c2nnc(-c3ccc(Br)cc3)cc21 [MMV665934] | 99% | EC50 (P. falciparum 3D7 [1]; source GNF (GNF-Pf ids)): 2500 nM |
| 450 nM | O=C(Nc1ccc(-c2nc3cc4ccccc4cc3[nH]2)cc1)c1cccc(Br)c1 [MMV019241] | 93% | EC50 (P. falciparum 3D7 [1]; source GSK (TCMDC ids)): 363 nM |
| 614 nM | Cc1sc2ncnc(Sc3nc4ccccc4[nH]3)c2c1C [MMV019266] | 100% | EC50 (P. falciparum 3D7 [1]; [4]): 255 nM |
| 466 nM | OC(CNC1CCCCC1)Cn1c2ccc(I)cc2c2cc(I)ccc21 (stereo not shown) [MMV665882] | 97% | EC50 (P. falciparum 3D7 [1]; [3]): 337 nM |
| 745 nM | O=C(Nc1cccc(-c2nc3ccccc3[nH]2)c1)c1cccc(NC(=O)c2ccco2)c1 [MMV665883] | 95% | EC50 (P. falciparum 3D7 [1]; [4]): 360 nM |
|  | CC(C)(C)c1ccc(C(=O)Nc2nc3ccccc3s2)cc1 [MMV142383] | 81% | EC50 (P. falciparum 3D7 [1]; source StJude): 15000 nM |
| 563 nM | O=C(NCCCN1CCC(N2CCCCC2)CC1)C1=Cc2cc(Br)ccc2OC1 [MMV019995] | 99% | EC50 (P. falciparum 3D7 [1]; source GSK (TCMDC ids)): 853 nM |
| 1750 nM | C=C(C)CCC(C)N1CCC(N2CCC(C(=O)NCCc3ccccc3)CC2)CC1 (stereo not shown) [MMV666110] | 96% | EC50 (P. falciparum 3D7 [1]; source StJude): 4260 nM |
| 4000 nM | CCc1ccc(Nc2cc(C)nc3nc(C)nn23)cc1 [MMV007374] |  | EC50 (P. falciparum 3D7 [1]; [4]): 574 nM; inhibition of growth at 2 µM (P. falciparum 3D7 [2]; 3D7, read-out: percent_inh @ 2 uM): 81% |

| Structure (SMILES) | EC50 (P. falciparum 3D7 [2]) | inhibition of growth at 5 µM (P. falciparum 3D7 [2]) | also measured |
| --- | --- | --- | --- |
| CCCc1cc(O)c2c3c(c(=O)oc2c1)CN(C)CC3 [MMV665841] | 146 nM | 97% | EC50 (P. falciparum 3D7 [1]; source GNF (GNF-Pf id)): 554 nM; EC50 (P. falciparum 3D7 [1]; source GSK (TCMDC id)): 873 nM |
| c1ccc2c(NCCCCCCNc3c4c(nc5ccccc35)CCCC4)c3c(nc2c1)CCCC3 [MMV019555] | 376 nM | 100% | EC50 (P. falciparum 3D7 [1]; source GSK (TCMDC ids)): 196 nM |
